Several values for one entry are separate records, joined by “and”; a condition that tells them apart may be missing. Equal values may be shown once. Read-outs that look alike come from different tables or passages of the source.
What was measured:
[1] = target: T1, Nav1.5 (Homo sapiens, UniProt Q14524)
[2] = test system: Nav1.5 transfected cells (CHO); type: cell-based, Chinese hamster
[3] = target: T1, Nav1.5; type: cell-based
[4] = target: T1, Nav1.5; type: cell-based; remark: listed apart in the source
[5] = target: Nav1.5 (SCN5A) (Homo sapiens, UniProt Q14524); type: cell-based
[6] = test system: rat diaphragm muscle; note: test concentration or dose not given here
[7] = target: T2, Nav1.4 (Homo sapiens, UniProt P35499); type: cell-based; for Mean block of INa: test concentration or dose not given here
[8] = target: Nav1.4 F1586A (Homo sapiens, UniProt P35499, F1586A); type: cell-based; for Mean block of INa: test concentration or dose not given here
[9] = target: Nav1.4 WWWW (Homo sapiens, UniProt P35499, F432W/I1280W/I1583W/V787W); type: cell-based; note: test concentration or dose not given here
[10] = target: T2, Nav1.4; type: cell-based; remark: listed apart in the source
[11] = target: Nav1.4 P1158S (Homo sapiens, UniProt P35499, P1158S); type: cell-based
[12] = target: Nav1.4 DIV-S6 peptide ([…]) (Homo sapiens, UniProt P35499); type: binding
[13] = test system: gramicidin-HEK cells; type: cell-based, human
[14] = test system: gramicidin containing DC22:1PC LUVs
[15] = test system: Nav1.5 transfected cells (CHO)
[16] = test system: Nav; conditions: cited from earlier work
[17] = target: Nav1.1 pore-mutant (F1763A-LA mutant) (Homo sapiens, UniProt P35498, F1774A); conditions: cited from earlier work
[18] = target: T1, Nav1.5; type: cell-based; remark: listed apart in the source
[19] = target: T1, Nav1.5; type: cell-based; remark: listed apart in the source
[20] = target: T2, Nav1.4; conditions: read-out: resting IC50 on Nav1.4; cited from earlier work
[21] = target: T1, Nav1.5; type: cell-based; remark: listed apart in the source
[22] = test system: TTX-sensitive channels; conditions: cited from earlier work

Nav1.4 P1158S, sequence (P35499 whole entry P1158S, looked up): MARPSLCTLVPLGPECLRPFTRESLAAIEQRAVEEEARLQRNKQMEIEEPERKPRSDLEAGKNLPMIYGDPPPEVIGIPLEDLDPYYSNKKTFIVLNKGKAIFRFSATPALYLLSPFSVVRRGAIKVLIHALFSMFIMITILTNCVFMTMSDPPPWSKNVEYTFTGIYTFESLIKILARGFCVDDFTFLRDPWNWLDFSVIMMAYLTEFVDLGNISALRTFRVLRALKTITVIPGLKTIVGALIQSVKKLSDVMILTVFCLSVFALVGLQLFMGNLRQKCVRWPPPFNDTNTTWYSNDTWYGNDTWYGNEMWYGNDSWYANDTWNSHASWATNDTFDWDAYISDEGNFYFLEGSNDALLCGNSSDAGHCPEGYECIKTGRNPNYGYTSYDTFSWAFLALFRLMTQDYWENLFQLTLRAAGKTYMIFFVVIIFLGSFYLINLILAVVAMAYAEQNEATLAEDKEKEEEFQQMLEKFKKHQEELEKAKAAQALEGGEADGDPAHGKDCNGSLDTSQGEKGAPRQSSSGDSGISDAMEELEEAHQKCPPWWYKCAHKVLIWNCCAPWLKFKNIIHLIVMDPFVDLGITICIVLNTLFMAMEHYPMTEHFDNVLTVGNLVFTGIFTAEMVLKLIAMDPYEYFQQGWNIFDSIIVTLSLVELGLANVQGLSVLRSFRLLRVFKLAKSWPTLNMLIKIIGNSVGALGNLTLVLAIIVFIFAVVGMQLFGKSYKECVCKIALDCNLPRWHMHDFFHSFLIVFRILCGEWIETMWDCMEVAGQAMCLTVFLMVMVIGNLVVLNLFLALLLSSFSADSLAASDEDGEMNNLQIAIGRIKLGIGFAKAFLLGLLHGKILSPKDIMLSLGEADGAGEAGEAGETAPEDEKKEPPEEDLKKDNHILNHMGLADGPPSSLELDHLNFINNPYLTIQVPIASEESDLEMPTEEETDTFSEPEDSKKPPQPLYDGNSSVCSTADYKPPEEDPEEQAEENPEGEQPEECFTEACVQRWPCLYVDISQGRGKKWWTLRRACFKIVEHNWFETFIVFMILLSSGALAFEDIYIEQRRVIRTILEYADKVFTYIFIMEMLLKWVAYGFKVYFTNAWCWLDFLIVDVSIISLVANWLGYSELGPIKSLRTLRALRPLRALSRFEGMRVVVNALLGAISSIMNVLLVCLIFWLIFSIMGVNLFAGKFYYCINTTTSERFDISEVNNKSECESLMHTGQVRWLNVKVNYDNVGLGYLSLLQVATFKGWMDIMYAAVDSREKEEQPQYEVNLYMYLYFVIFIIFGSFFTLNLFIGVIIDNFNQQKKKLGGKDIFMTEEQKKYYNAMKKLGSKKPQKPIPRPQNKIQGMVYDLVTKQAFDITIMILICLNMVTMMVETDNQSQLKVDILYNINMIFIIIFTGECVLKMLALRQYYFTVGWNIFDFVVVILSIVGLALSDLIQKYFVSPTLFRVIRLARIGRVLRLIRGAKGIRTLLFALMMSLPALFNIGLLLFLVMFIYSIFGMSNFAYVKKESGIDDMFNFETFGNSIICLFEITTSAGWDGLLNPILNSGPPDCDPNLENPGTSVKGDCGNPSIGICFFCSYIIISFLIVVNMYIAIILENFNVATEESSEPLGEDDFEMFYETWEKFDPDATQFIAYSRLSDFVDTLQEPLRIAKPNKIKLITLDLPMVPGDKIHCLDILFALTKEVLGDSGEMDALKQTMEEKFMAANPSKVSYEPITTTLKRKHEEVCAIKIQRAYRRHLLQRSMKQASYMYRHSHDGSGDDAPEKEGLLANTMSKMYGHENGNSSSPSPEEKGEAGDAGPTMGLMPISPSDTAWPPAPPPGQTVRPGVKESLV
T1 sequence (Q14524 whole entry): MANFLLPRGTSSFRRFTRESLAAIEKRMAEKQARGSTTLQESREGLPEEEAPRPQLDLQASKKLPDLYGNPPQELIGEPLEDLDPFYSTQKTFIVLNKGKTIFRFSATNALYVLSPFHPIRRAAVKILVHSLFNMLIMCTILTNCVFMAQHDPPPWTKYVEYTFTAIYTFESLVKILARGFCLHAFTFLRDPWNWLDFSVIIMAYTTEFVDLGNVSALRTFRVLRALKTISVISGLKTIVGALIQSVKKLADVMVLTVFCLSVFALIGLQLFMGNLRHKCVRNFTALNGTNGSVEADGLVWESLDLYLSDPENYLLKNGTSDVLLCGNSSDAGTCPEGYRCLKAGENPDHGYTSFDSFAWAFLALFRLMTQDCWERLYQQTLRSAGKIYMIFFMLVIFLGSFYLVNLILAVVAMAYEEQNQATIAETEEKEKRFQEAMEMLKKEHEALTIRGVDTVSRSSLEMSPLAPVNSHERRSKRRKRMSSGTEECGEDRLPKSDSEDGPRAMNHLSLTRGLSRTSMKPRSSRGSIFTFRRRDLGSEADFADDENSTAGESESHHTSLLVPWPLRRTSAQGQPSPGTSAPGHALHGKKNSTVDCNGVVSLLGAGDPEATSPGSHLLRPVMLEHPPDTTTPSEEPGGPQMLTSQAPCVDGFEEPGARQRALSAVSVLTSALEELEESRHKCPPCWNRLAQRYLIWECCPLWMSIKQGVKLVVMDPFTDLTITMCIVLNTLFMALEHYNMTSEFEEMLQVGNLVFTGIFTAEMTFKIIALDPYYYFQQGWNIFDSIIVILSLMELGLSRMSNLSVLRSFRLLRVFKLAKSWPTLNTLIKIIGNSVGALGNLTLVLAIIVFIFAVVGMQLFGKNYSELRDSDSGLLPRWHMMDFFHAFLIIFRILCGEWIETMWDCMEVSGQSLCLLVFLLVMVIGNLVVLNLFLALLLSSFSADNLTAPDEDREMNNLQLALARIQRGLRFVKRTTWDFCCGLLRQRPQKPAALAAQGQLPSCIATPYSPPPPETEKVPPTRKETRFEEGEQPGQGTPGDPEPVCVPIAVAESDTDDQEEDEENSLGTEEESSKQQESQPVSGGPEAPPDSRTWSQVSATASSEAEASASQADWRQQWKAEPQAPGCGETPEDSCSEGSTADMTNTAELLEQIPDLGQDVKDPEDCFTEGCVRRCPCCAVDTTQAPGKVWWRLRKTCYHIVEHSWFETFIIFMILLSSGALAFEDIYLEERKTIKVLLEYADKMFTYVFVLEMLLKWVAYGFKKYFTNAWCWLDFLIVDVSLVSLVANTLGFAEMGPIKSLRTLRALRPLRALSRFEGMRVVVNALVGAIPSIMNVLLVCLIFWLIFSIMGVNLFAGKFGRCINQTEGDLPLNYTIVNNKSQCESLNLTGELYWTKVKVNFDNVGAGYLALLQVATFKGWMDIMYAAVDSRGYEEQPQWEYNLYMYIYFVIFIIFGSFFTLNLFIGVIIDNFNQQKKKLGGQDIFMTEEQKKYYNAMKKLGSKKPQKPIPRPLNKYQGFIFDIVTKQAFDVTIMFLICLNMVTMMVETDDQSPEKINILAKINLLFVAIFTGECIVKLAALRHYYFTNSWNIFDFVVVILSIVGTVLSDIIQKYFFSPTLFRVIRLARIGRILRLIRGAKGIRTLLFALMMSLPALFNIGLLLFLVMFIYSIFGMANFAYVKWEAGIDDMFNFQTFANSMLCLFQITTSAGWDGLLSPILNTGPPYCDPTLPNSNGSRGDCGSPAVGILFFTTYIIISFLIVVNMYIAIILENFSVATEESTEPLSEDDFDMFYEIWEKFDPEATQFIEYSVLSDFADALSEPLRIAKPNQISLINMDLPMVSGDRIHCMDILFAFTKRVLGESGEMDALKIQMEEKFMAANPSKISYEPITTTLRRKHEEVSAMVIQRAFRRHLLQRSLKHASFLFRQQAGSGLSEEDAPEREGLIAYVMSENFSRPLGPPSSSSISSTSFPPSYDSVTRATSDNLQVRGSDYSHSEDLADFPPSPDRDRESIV
Nav1.4 WWWW, sequence (P35499 whole entry F432W/V787W/I1280W/I1583W, looked up): as the sequence (P35499 whole entry P1158S, looked up) above, with F432W, V787W, S1158P, I1280W, I1583W counted along it
Nav1.4 F1586A, sequence (P35499 whole entry F1586A, looked up): as the sequence (P35499 whole entry P1158S, looked up) above, with S1158P, F1586A counted along it
T2 sequence (P35499 whole entry, looked up): as the sequence (P35499 whole entry P1158S, looked up) above, with S1158P counted along it

With `CC[C@H]1OC(=O)[C@H](C)[C@@H](O[C@H]2C[C@@](C)(OC)[C@@H](O)[C@H](C)O2)[C@H](C)[C@@H](O[C@@H]2O[C@H](C)C[C@H](N(C)C)[C@H]2O)[C@](C)(O)C[C@@H](C)CN(C)[C@H](C)[C@@H](O)[C@]1(C)O` [Azithromycin] as the compound, how does the “late sodium current compared to control” value [1] read?
The value was “an increase in late sodium current”.

What does the source list for `C=C(C)[C@@H]1CCC(C)=C[C@H]1c1c(O)cc(CCCCC)cc1O` [CANNABIDIOL, 2-[(1R,6R)-3-Methyl-6-(1-methylethenyl)-2-cyclohexen-1-yl]-5-pentyl-1,3-benzenediol]?
ROS levels at high glucose [2]: complete reduction of ROS levels; GV − z (slope) [3]: 4.7 ± 0.9 and 3.7 ± 0.6 and 2.8 ± 0.2 and 3.1 ± 0.2; Percentage of persistent INa [4]: 0.93 ± 0.05% and 1.04 ± 0.11% and 0.88 ± 0.07%; activation and steady-state inactivation curves [5]: rescues the activation and steady-state inactivation curves; late sodium current [5]: indistinguishable from control; contraction amplitude [6]: ~60 % of control; Mean block of INa [7]: 42.4±6.4% and ~45%; Mean block of INa [8]: 25.3±4.8% and ~25%; difference between inhibition of WT vs. F1586A [8]: 1.5 fold; Mean block of INa [9]: 6.4±1.3%; SSFI V1/2 [10]: −72.7±3.0 mV; SSFI z [10]: −2.8±0.4; activation V1/2 [10]: −14.3±4.2 mV; activation z [10]: 2.8±0.3; SSFI V1/2 ([11]; pH6.4): −81.7±2.3 mV; SSFI z ([11]; pH6.4): 2.7±0.3; activation V1/2 ([11]; pH6.4): −21.1±3.3 mV; activation z ([11]; pH6.4): 2.5±0.2; persistent currents, Percentage ([11]; pH6.4): 5.4±1.2%; SSFI V1/2 ([11]; pH7.4): −83.0±2.6 mV; SSFI z ([11]; pH7.4): 3.0±0.3; activation V1/2 ([11]; pH7.4): −32.7±3.6 mV; activation z ([11]; pH7.4): 2.9±0.2; persistent currents, Percentage ([11]; pH7.4): 1.0±0.2%; peak heat of titration [12]: 1022.2 ± 160.6 kcal/mol; gramicidin currents [13]: slightly altered gramicidin currents; gramicidin signal (fluorescence quench) [14]: alters the gramicidin signal; effect on reduction in cell viability at high glucose [15]: attenuated the reduction in cell viability; Azithromycin-induced late sodium current [1]: the late current was reduced; state-dependence in Nav inhibition [16]: approximately 10 fold; IC50 ([16]; read-out: IC50, inactivated Nav): ~1 µM; IC50 ([16]; read-out: IC50, resting Nav): ~10 µM; drop in potency in pore-mutant [17]: ~2.5 fold

For `Nc1ncnc2c1nc(Sc1ccc(Cl)cc1)n2[C@@H]1O[C@@H]2COP(=O)([O-])O[C@H]2[C@H]1O.[Na+]` [CPT-cAMP, 8-(4-chlorophenylthio) adenosine-3′,5′-cyclic monophosphate], which “GV − V1/2 (Steady state activation)” value [18] is on record?
The value was −25.2 ± 0.5 mV.

And the “GV − z (slope)” value [18]?
The value was 2.5 ± 0.1.

And the “SSFI V1/2” value [19]?
Its value is −79.4 ± 1.1 mV.

And the “SSFI − z (slope)” value [19]?
Its value is −3.0 ± 0.1.

And the “Percentage of persistent INa” value [4]?
The value was 2.20 ± 0.08%.

What does the source list for `C[C@]12CC[C@@H]3c4ccc(O)cc4CC[C@H]3[C@@H]1CC[C@@H]2O` [E2, 17β-Estradiol]?
GV − z (slope) [18]: 3.1 ± 0.1 and 3.0 ± 0.1 and 2.4 ± 0.1 and 3.5 ± 0.1 and 2.8 ± 0.1 and 3.6 ± 0.1 and 3.4 ± 0.2; Percentage of persistent INa [4]: 0.85 ± 0.06% and 0.91 ± 0.06% and 1.92 ± 0.09% and 0.89 ± 0.06% and 1.73 ± 0.03% and 0.95 ± 0.09% and 0.90 ± 0.11%

For `CCN(CC)CC(=O)Nc1c(C)cccc1C` [Lidocaine, lidocaine], which “Mean block of INa” value [7] is on record?
The value was 60.6±2.3% and ~60%.

And the “Mean block of INa” value [8]?
Its value is 24.6±9.3% and ~20%.

What about the “difference between inhibition of WT vs. F1586A” value [8] of the same compound?
Its value is 3 fold.

And the “Mean block of INa” value [9]?
The value was 53.6±11.7%.

What about the “peak heat of titration” value [12] of the same compound?
The value was 968.0 ± 23.4 kcal/mol.

What about the IC50 [20] of the same compound?
The IC50 was 1100 µM.

What does the source list for `OC[C@@H](O)[C@@H](O)[C@H](O)[C@H](O)CO` [Mannitol, mannitol]?
GV − V1/2 (Steady state activation) [3]: −39.2 ± 1.6 mV; GV − z (slope) [3]: 5.1 ± 0.8; SSF[I] − V1/2 (Steady State Fast Inactivation) [21]: −93.6 ± 2.3 mV; SSF[I] − z (slope) [21]: −2.1 ± 0.3; cell viability, agent alone [15]: no significant effect on the cell viability

Which “GV − V1/2 (Steady state activation)” value [18] does the source give for `CCCCCCCCCCCCCC(=O)O[C@@H]1[C@@H](C)[C@@]2(O)[C@@H](C=C(CO)C[C@]3(O)C(=O)C(C)=C[C@@H]23)[C@@H]2C(C)(C)[C@]12OC(C)=O` [PMA] here?
The value was −22.6 ± 1.6 mV.

And the “GV − z (slope)” value [18]?
The value was 2.5 ± 0.1.

And the “SSFI V1/2” value [19]?
Its value is −76.4 ± 1.7 mV.

What about the “SSFI − z (slope)” value [19] of the same compound?
The value was −2.9 ± 0.2.

What about the “Percentage of persistent INa” value [4] of the same compound?
The value was 2.18 ± 0.06%.

What does the source list for `NC1=N[C@H](O)[C@H]2[C@H]3O[C@]4(O)O[C@@H]([C@@H](O)[C@@]2(N1)[C@@H]4O)[C@]3(O)CO` [TTX, tetrodotoxin]?
contraction amplitude [6]: ~20 % of control; IC50 [22]: 0.01 to 0.03 µM

Which results are given for `CC1(C)CC(O)CC(C)(C)N1[O]` [Tempol]?
ROS levels at high glucose [2]: complete reduction of ROS levels; GV − z (slope) [3]: 3.9 ± 0.6 and 4.4 ± 0.5 and 2.6 ± 0.2 and 4.0 ± 0.6 and 2.2 ± 0.1 and 4.3 ± 1.0 and 3.4 ± 0.3; effect on reduction in cell viability at high glucose [15]: showed similar results to CANNABIDIOL

Which results are given for `O=C(NCC1CCCCN1)c1cc(OCC(F)(F)F)ccc1OCC(F)(F)F` (centres unmarked) [flecainide]?
Mean block of INa [7]: 64.6±6.0%; Mean block of INa [9]: 76.4±11.3%

With Triton X100 [TX100] as the compound, how does the gramicidin currents [13] read?
The gramicidin currents was “altered the cationic gramicidin currents across all potentials”.

Reference: patent publication US20230123654A1 (priority 2020, published 2023)
